# Cy5.5 = Cy5.5 dye
# Key:
# [1] = system: activated retinal microglial cells; assay: Lipopolysaccharide ocular inflammation model, 1 μl LPS alone or with SAP intravitreally, sacrifice after 24 hours (Example 2); type: in vivo, Sprague-Dawley rats
# Protocol: Adult white Sprague-Dawley rats with a weight of between 200 and 240 grams were housed in a 12 hours light/12 hours night cycle with free access to food and water. The animals were randomly divided into a study or control groups.
# Intravitreal injections, immunohistochemical staining and assessment of intraocular inflammation were generally performed as described in Example 1.
# 1 μl sterile lipopolysaccharide (LPS; from S. typhimurium; catalog no. L-7261; Sigma-Aldrich, St. Louis, Mo.) either alone or in combination with (RADA)2 (SEQ ID NO: 88) solutions at 0.1%, 1.0%, and 10.0% were administered via direct intravitreal injections. The animals were sacrificed 24 hours after treatment. The experiments were repeated at least 5 times.
# In some experiments, different SAP, including S2 (H2N(EARA)COOH; SEQ ID NO: 92), S3 (H2N(RARA)CONH2; SEQ ID NO: 413), and S5 (H2N(EARA)2CONH2; SEQ ID NO: 414), were evaluated as described above for (RADA)2 (SEQ ID NO: 88).
# Finally, a conjugate of an EARA based SAP and a tissue-specific motif (MSCRAMM; SEQ ID NO: 141) was also evaluated using this lipopolysaccharide ocular inflammation model. Experiments were performed as described above for (RADA)2 (SEQ ID NO: 88). Briefly, 1 μl sterile lipopolysaccharide (LPS; from S. typhimurium; catalog no. L-7261; Sigma-Aldrich, St. Louis, Mo.) either alone or in combination with MSCRAMM(EARA)4 (SEQ ID NO: 432) solutions at 1.0%, and 3.0% were administered via direct intravitreal injections. The animals were sacrificed 24 hours after treatment. The experiments were repeated three times for each SAP conjugate concentration (that is, n=3 for 1%; n=3 for 3%).
# [2] = system: activated retinal microglial cells; assay: Lipopolysaccharide ocular inflammation model, intravitreal co-injection, quantification of activated retinal microglial cells (Example 1); type: in vivo, Sprague-Dawley rats; parameters: TOTAL AREA WEIGHT (total retinal area weight-averaged density; amount of inflammation) / JEB #: unit not given here; settings: for JEB # / TOTAL AREA WEIGHT (total retinal area weight-averaged density; amount of inflammation): 0.5% RADA + LPS intravitreal
# Protocol: The anti-inflammatory effect of SAP was examined using the lipopolysaccharide ocular inflammation model, and measurement of microglial cell activation was assessed as an indicator of inflammation. Morphological changes in macrophage cells, such as microglial cells, can be used as a marker of the presence and extent of inflammation. Methods for identifying and scoring variations in microglial cell morphology in response to inflammatory stimuli are described in the art (see, for example, Jonas, et al., PLoS ONE 7(2): e30763 (2012)).
# Adult white Sprague-Dawley rats weighing between 200 and 240 grams were housed in a 12 hour light/12 hour night cycle with free access to food and water. The animals were randomly divided into study or control groups.
# Animals were anesthetized by an intraperitoneal injection of xylazine 2% (5 mg/kg body weight) and ketamine 10% (100 mg/kg body weight). Topical anesthesia was additionally provided by repeated administration of proparacaine (0.5%) drops onto the cornea. A thorough disinfection of the ocular surface, the lid margins and the periocular skin was carried out with iodine 5% solution.
# Using a glass pipette pulled to the size of a 30 gauge needle and attached to a syringe, 2 μl of sterile, pyrogen-free saline containing lipopolysaccharides from Salmonella typhimurium (catalog no. L-7261; Sigma-Aldrich, St. Louis, Mo.) was intravitreally injected.
# For the primary experiment, the study included 40 Sprague-Dawley rats. All intravitreal injection volumes were of 2 μl, to reduce the effects of increased ocular pressure. All intravitreal injections of lipopolysaccharides (LPS) volumes were 4 μg at a concentration of 2 μg/μL.
# The control groups (n=20) received either an intravitreal saline injection (n=5), lipopolysaccharide (LPS) alone ([…]), or no injection as a normal control group (n=5). Animals in the SAP study group (n=15) also received the self-assembling peptide (amino acid sequence RADARADARADARADA; “RADA-16”) in concentrations of 0.5% of SAP/2 μL.
# At one, three and seven days after the injections, the animals were sacrificed, and the globes were immunohistochemically stained and histomorphometrically examined. The contralateral eye from the LPS group was also examined.
# The eyes were embedded with Optimal Cutting Temperature compound (Tissue-Tek® O.C.T., Ted Pella, Inc. Redding, Calif.) after the lenses were removed. The globes were sectioned and placed on subbed slides. After being washed in 0.01M phosphate buffered saline for 10 minutes, the sections (15 μm) were immersed in a blocking solution containing 0.3% triton, 2.5% bovine serum albumin (BSA; Proliant Co, Ankeny, Iowa, USA) and 2% goat serum for 30 minutes. The sections were incubated in a primary antibody diluted solution overnight at 4° C., containing rabbit anti-IBA1 (Ionized calcium Binding Adaptor molecule 1; 1:500; Wako Pure Chemical Industries, Ltd. Osaka, Japan) and mouse anti rat CD 68 (ED1) (1:1000; AbD Serotech, D-40470 Dusseldorf, Germany). The sections were then washed in 0.01M phosphate buffered saline (10 minutes, 3 times), and incubated with secondary antibody diluted solution at room temperature for 2 hours (Goat-anti-rabbit 568, Goat-anti-mouse Alexa 488, (Invitrogen, Carlsbad, Calif., 1:400)). The slides were then washed in 0.01M phosphate buffered saline (10 minutes, 3 times) and cover slipped with fluorescein mounting medium with DAPI (4′,6-diamidin-2′-phenylindol-dihydrochloride; Dako Ltd, Glostrup, Denmark). All images were taken under a 20× objective with a Carl Zeiss Flour microscope (Carl Zeiss Inc. Oberkochen, Germany) fitted with a spot camera. All illumination levels were fixed during image acquisition.
# The amount of intraocular inflammation was assessed by quantification of immunohistochemically labeled activated retinal microglial cells, which function as the immune mediators of the central nervous system. […]
# [3] = parameters: species or system Sprague-Dawley rats; settings: rat, in vivo
# Protocol: The fate of SAP upon application to the eye was investigated. Specifically, the ability of SAP to reach the retina via application of eye drop solutions of the SAP to the cornea was evaluated using an SAP-Cy5 conjugate.
# Adult white Sprague-Dawley rats weighing between 200 and 240 grams were housed in a 12 hour light/12 hour night cycle with free access to food and water. The animals were randomly divided into experimental or control groups.
# Conjugates of Cy5.5 and RADA (SEQ ID NO: 57), Cy5.5 and RADARADA ((RADA)2; SEQ ID NO: 88), and Cy5.5 and H2N(RADA)4CONH2 (SEQ ID NO: 433) were prepared according to a modified protocol of Chen X., et al., Cancer Res., 64(21): 8009-8014 (2004).
# In one experiment, RADA-4-Cy5.5 conjugate was prepared as follows: 0.5 mg of H2N(RADA)4CONH2 was dissolved in 50 μL of DMSO to a final concentration of […] in DMSO. The solution was mixed with 20 μL of diethyl isopropyl amine (DIPEA) to adjust the pH to 12. A solution of Cy5.5 dyes (1.0 mg in 20 μL of DMSO) was added at room temperature for conjugation and the mixture was periodically vortexed over 2 hours.
# In some experiments, the RADA-4 solution was prepared with water as the solvent, for example: to a solution of RADA-4 (1.8 mg of H2N(RADA)4CONH2 (SEQ ID NO: 433) in 500 μL of Milli-Q water), 1 μL of Diisopropyl ethylene amine (DIPEA) was added to obtain pH 8 from 4. To prepare a working Cy5.5 stock, 165 μL of Milli-Q water was added to 165 μL Cy5.5 to make a 6.59×10^−7 M solution. The final conjugate was prepared by mixing equal volumes (165 μL) of the buffered (pH 8) (RADA)4 solution and Cy5.5 solution at room temperature for 2 hours.
# Eye drops were applied to both eyes of rats. The experimental group of rats were administered 2 μL of Cy5.5-(RADA)4 conjugate via drops, while control rats were administered Cy5.5 only via drops. The experiments were repeated using Cy5.5 conjugated to RADA (Cy5.5(RADA)COOH; SEQ ID NO: 442) and Cy5.5 conjugated to (RADA)2 (Cy5.5(RADA)2COOH; SEQ ID NO: 444).
# The rats were sacrificed 24 hours or 3 days post treatment. The eye balls of the rats were harvested and were then fixed in 4% paraformaldehyde (PFA) overnight. Excessive PFA was washed with 0.1M phosphate buffer (0.1MPB) 3 times (30 minutes each). The eyeballs were then dehydrated with 30% sucrose solution (30 g sucrose in 100 mL of 0.1 MPB) overnight, while replenishing the sucrose solution once for at least 6 hours. As necessary, the shape of the eyeballs was reformed with O.C.T. (Optimal Cutting Temperature compound; TISSUE-TEK® O.C.T.; CA) by injecting through the optic nerve. Each eye was embedded entirely in a mount with O.C.T. in liquid nitrogen to form frozen blocks. Blocks containing the eye samples were then sectioned at 20 microns and were placed on charged slides and allowed to dry. The slides were then rinsed to remove excess OCT and cover-slipped. The fate of the Cy5.5-RADA conjugate was investigated by tracing the color of the Cy5.5 in the eye. Visualization was performed with light microscopy and photographs were taken with a SPOT camera affixed to the Zeiss microscope.
# [4] = 1.0% and 3.0% solutions with LPS, 24 hours
substance,measurement,setting,value
MSCRAMM(EARA)4 (MSCRAMMEARAEARAEARAEARA) [conjugate of an EARA based SAP and a tissue-specific motif (MSCRAMM],ED1 reactivity,[1]; [4],no evidence of ED1 reactivity
same,activation of microglia (JEB score),[1]; [4],≤ 4
same,inflammation in treated animals,[1]; [4],no inflammation
same,signs of retinal inflammation compared to control (LPS only),[1]; [4],reduction
RADARADARADARADA,JEB #,[2]; Day 1,11.63
same,TOTAL AREA WEIGHT (total retinal area weight-averaged density; amount of inflammation),[2]; Day 1,74.99
same,TOTAL AREA WEIGHT (total retinal area weight-averaged density; amount of inflammation),"[2]; Day 1, listed as SAP",75.0±26.6
same,JEB #,[2]; Day 3,8.502
same,TOTAL AREA WEIGHT (total retinal area weight-averaged density; amount of inflammation),[2]; Day 3,55.91
same,TOTAL AREA WEIGHT (total retinal area weight-averaged density; amount of inflammation),"[2]; Day 3, listed as SAP",55.9±45.9
same,JEB #,[2]; Day 7,9.158
same,TOTAL AREA WEIGHT (total retinal area weight-averaged density; amount of inflammation),[2]; Day 7,52.66
same,TOTAL AREA WEIGHT (total retinal area weight-averaged density; amount of inflammation),"[2]; Day 7, listed as SAP",52.7±47.7
same,amount of inflammation compared to normal or saline injected controls,[2]; 0.5% SAP + LPS,no significant difference
same,level of inflammation compared to LPS-only control group,[2]; 0.5% SAP + LPS,significantly (P<0.001) lower
same,density of activated retinal microglial cells compared to LPS controls,[2]; SAP + LPS vs LPS-only,significantly lower
same,signs of retinal inflammation,[2]; intraocular SAP along with LPS,marked reduction
H2N(EARA)2CONH2 (H-EARAEARA-NH2) [SAP S5],signs of retinal inflammation compared to control,"[1]; along with LPS, FIG. 5",marked reduction
Cy5.5 [reference compound],pink coloration (Cy5.5) in the retina,[3],no pink coloration was observed in any part of the retina or optic nerve head
same,transport across the cornea / localization,[3],not transported across the cornea
RADARADA [(RADA)2],signs of retinal inflammation compared to control (LPS alone),"[1]; all concentrations (0.1%, 1.0%, 10.0%), 24 hours, FIG. 4",marked reduction
same,density of activated retinal microglial cells compared to controls (LPS alone),"[1]; combination injection with LPS, 24 hours",significantly lower
Cy5.5(RADA)COOH ({Cy5.5}-RADA-OH) [Cy5.5 conjugated to RADA],localization,[3],localize to the retina
H2N(RARA)CONH2 (H-RARA-NH2) [SAP S3],LPS induced inflammation,"[1]; along with LPS, FIG. 5",reduced LPS induced inflammation to normal levels
same,signs of retinal inflammation compared to control,"[1]; along with LPS, FIG. 5",marked reduction
Cy5.5(RADA)2COOH ({Cy5.5}-RADARADA-OH) [Cy5.5 conjugated to RADARADA],localization,[3],localize to the retina
Cy5.5(RADA)4CONH2,localization,[3],localize to the retina
same,pink coloration (Cy5.5) in the retina,[3],pink coloration was observed throughout the outer retina
same,transport across the cornea / localization,[3],localize within the retina
H2N(EARA)COOH (H-EARA-OH) [SAP S2],signs of retinal inflammation compared to control,"[1]; along with LPS, FIG. 5",marked reduction

# Reference: patent US20190292223A1, “SAP AND PEPTIDOMIMETICS FOR TREATMENT OF EYE DISEASE” (Arch Biosurgery, Inc., priority 2018, published 2019)
